# In patent publication US6500950B1, “Benzylidenepyrazolones, their preparation and use” (BASF Aktiengesellschaft, priority 1997, dated 2002):
# How the values were obtained:
# Type in all cases: in vivo
# Amaranthus retroflexus = assay: Post-emergence greenhouse experiment, herbicidal activity
# Description: (§1) The seeds of the test plants were sown separately for each species. For the post-emergence treatment, the test plants were first grown to a plant height of 3 to 15 cm, depending on the plant habit, and only then treated with the active compounds which had been suspended or emulsified in water. The test plants for this purpose were either sown directly and grown in the same containers, or they were first grown separately as seedlings and transplanted into the test containers a few days prior to treatment. […] Depending on the species, the plants were kept at 10-25° C. or 20-35° C. The test period extended over 2 to 4 weeks. During this time, the plants were tended, and their response to the individual treatments was evaluated. Evaluation was carried out using a scale from 0 to 100. 100 means no emergence of the plants, or complete destruction of at least the aerial parts, and 0 means no damage, or normal course of growth.
# Solanum nigrum = assay: as above
# Description: as §1
# Chenopodium album = assay: as above; conditions: post-emergence rate 0.125 or 0.0≅kg/ha of a.s., scale 0 to 100
# Description: (§2) The seeds of the test plants were sown separately for each species. For the post-emergence treatment, the test plants were first grown to a plant height of 3 to 15 cm, depending on the plant habit, and only then treated with the active compounds which had been suspended or emulsified in water. The test plants for this purpose were either sown directly and grown in the same containers, or they were first grown separately as seedlings and transplanted into the test containers a few days prior to treatment. The rate of application for the post-emergence treatment was 0.125 or 0.0≅kg/ha of a.s. Depending on the species, the plants were kept at 10-25° C. or 20-35° C. The test period extended over 2 to 4 weeks. During this time, the plants were tended, and their response to the individual treatments was evaluated. Evaluation was carried out using a scale from 0 to 100. 100 means no emergence of the plants, or complete destruction of at least the aerial parts, and 0 means no damage, or normal course of growth. The plants used in the greenhouse experiments were from the following species: [table]
# Polygonum persicaria = assay: as above; conditions: post-emergence rate 0.125 or 0.0≅kg/ha of a.s., scale 0 to 100
# Description: as §2
# Setaria faberii = assay: as above; conditions: for Test plants [damage in %] Setaria faberii: post-emergence
# Description: as §1, with “growth. The plants used in the greenhouse experiments were from the following species: [table]” for “growth.”
# Echinochloa crus-galli = assay: as above; conditions: for Test plants [damage in %] Echinochloa crus-galli: post-emergence
# Description: as §1, with “growth. The plants used in the greenhouse experiments were from the following species: [table]” for “growth.”
# Zea mays = assay: Post-emergence greenhouse experiment, damage to useful plant; conditions: post-emergence rate 0.125 or 0.0≅kg/ha of a.s., scale 0 to 100
# Description: as §2
# [1] = application rate 0.25 g/ha of a.s.
# [2] = application rate 0.5 g/ha of a.s.
# [3] = greenhouse, post-emergence rate 0.125 or 0.0≅kg/ha of a.s., scale 0 to 100
smiles,measurement,setting,value
"CCN1N=CC(=C(Cl)c2ccc(S(C)(=O)=O)c(C3=NOCC3)c2Cl)C1=O [I.119, cis-4-[Chloro(2-chloro-3-(4,5-dihydroisoxazol-3-yl)-4-methylsulfonylphenyl)methylene]-2-ethyl-2,4-dihydropyrazol-3-one]",Test plants [damage in %] Amaranthus retroflexus,Amaranthus retroflexus; [1],100%
same,Test plants [damage in %] Amaranthus retroflexus,Amaranthus retroflexus; [2],100%
same,Test plants [damage in %] Solanum nigrum,Solanum nigrum; [1],100%
same,Test plants [damage in %] Solanum nigrum,Solanum nigrum; [2],100%
same,damage of the plants,Chenopodium album,> 98%
same,damage of the plants,Polygonum persicaria,> 98%
same,damage of the plants,Setaria faberii; [3],> 98%
same,Test plants [damage in %] Setaria faberii,Setaria faberii; [1],100%
same,Test plants [damage in %] Setaria faberii,Setaria faberii; [2],100%
same,damage of the plants,Echinochloa crus-galli; [3],> 98%
same,Test plants [damage in %] Echinochloa crus-galli,Echinochloa crus-galli; [1],100%
same,Test plants [damage in %] Echinochloa crus-galli,Echinochloa crus-galli; [2],100%
same,damage of the useful plant maize,Zea mays,0%
